The nature of data set [1]: Toxicity in CD1 mouse PSNL model assessed as induction of opiate withdrawal by measuring expression of some behavioral signs measured immediately after naloxone injection at 1.25 mg/kg, ip BID for 11 days from day 13 to day 22 and measured on day 23. The class given is organism-based. The settings on record: in vivo, 264 h, time 11 day.
The target in data set [2] is Voltage-gated inwardly rectifying potassium channel KCNH2 (Homo sapiens, UniProt Q12809).
Description: Inhibition of human ERG expressed in CHO cells at -80 mV holding potential by whole cell patch clamp assay
Another data set addresses CYP3A4 (Homo sapiens, UniProt P08684). Briefly: Inhibition of human CYP3A4 at 1 uM relative to control. The class given is ADME.
The nature of data set [3]: Permeability in human Caco-2 cells. The class given is ADME, cell-based.
Data set [4] deals with HepG2. The data set is described as follows: Toxicity in human HepG2 cells assessed as reduction in cell viability up to 100 uM by MTT assay. The class given is cell-based.
Data set [5] concerns Mus musculus. Briefly: Antinociceptive activity in CD1 mouse at 10 to 40 mg/kg, po co-treated with 64 mg/kg, sc sigma1R agonist PRE-084 by paw pressure test. As to conditions: dose 10-40 mg/kg. The class given is functional.
The target of the next data set is CYP2C9 (Homo sapiens, UniProt P11712). The data set is described as follows: Inhibition of human CYP2C9 at 1 uM relative to control. The class given is ADME.
Sequence of CYP2C9 (P11712 whole entry): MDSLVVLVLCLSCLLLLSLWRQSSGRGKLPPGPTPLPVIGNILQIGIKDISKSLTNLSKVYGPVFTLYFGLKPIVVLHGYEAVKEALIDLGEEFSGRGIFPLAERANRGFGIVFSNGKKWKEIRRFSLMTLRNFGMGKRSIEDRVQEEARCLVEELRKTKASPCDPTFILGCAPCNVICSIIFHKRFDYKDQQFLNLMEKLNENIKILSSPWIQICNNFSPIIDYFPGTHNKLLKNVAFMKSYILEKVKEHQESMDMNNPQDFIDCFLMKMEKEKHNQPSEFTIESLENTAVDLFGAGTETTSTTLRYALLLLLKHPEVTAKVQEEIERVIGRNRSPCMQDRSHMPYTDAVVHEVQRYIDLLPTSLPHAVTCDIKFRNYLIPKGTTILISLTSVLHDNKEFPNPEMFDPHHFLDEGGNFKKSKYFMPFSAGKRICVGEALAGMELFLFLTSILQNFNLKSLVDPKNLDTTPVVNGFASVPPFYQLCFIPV
A further data set deals with T1, CYP1A2 (Homo sapiens, UniProt P05177).
T1 sequence (P05177 whole entry): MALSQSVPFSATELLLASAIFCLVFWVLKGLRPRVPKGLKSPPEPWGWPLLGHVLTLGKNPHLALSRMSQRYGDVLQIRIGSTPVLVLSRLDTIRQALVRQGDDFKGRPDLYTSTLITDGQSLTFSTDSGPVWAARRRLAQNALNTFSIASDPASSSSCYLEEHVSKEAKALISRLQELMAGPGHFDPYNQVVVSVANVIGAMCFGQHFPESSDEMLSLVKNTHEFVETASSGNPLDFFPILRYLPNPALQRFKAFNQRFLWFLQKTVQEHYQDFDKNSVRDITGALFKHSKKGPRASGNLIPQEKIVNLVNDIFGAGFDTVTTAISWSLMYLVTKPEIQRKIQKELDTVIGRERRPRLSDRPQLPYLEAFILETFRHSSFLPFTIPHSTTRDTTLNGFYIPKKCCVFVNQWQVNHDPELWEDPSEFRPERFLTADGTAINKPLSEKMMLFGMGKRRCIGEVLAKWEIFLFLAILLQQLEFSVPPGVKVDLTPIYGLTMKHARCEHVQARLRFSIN
The data set is described as follows: Inhibition of human CYP1A2 at 1 uM relative to control. The class given is ADME.

The test system of data set [6] is HepG2. Briefly: Toxicity in human HepG2 cells assessed as reduction in cell viability up to 100 uM by neutral red uptake assay. The class given is cell-based.
Data set [7] in a line: Lipophilicity, logD of compound. The class given is physicochemical. The settings on record: octanol/water.
Data set [8] is described as follows: Toxicity in CD1 mouse PSNL model assessed as induction of opiate withdrawal by measuring expression of some behavioral signs measured immediately after naloxone injection at 5 mg/kg, ip BID for 11 days from day 13 to day 22 and measured on day 23. The class given is organism-based. The settings on record: in vivo, 264 h, time 11 day.
Another data set has as its target CYP2D6 (Homo sapiens, UniProt P10635). The data set is described as follows: Inhibition of human CYP2D6 at 1 uM relative to control. The class given is ADME.
A short description of data set [9]: Mutagenicity in Salmonella typhimurium by Ames test. The class given is toxicity. The settings on record: salmonella enterica subsp. enterica serovar typhimurium.
A short description of data set [10]: Thermodynamic solubility of compound at pH 2. The class given is physicochemical. As to conditions: buffer, read-out: Therm_solubility.
The target in another data set is CYP2C19 (Homo sapiens, UniProt P33261). The data set is described as follows: Inhibition of human CYP2C19 at 1 uM relative to control. The class given is ADME.
Sequence of CYP2C19 (P33261 whole entry): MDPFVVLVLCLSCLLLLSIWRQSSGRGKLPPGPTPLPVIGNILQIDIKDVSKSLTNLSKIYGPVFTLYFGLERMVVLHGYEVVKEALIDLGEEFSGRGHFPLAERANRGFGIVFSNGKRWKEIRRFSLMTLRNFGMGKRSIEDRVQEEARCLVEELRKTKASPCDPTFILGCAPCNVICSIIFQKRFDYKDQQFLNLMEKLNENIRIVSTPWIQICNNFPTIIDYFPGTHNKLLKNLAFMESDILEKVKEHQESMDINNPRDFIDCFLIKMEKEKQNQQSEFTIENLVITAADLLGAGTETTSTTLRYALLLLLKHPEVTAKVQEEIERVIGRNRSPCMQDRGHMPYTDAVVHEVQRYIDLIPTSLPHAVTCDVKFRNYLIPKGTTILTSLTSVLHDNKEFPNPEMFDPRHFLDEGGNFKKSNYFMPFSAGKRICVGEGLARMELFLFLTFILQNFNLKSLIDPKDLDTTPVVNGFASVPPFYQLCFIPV
The nature of data set [11]: Toxicity in CD1 mouse assessed as inhibition of intestinal transit by measuring percentage of distance traveled by charcoal meal at 40 mg/kg, po. The class given is organism-based. As to conditions: in vivo.
Data set [12] is described as follows: Distribution coefficient, logD of compound at pH 7.4. The class given is physicochemical. The settings on record: octanol/water.
The test system of data set [13] is Mus musculus. Briefly: Antinociceptive activity in CD1 mouse PSNL model assessed as reduction in mechanical allodynia by measuring decrease in the pressure required to elicit withdrawal of the ipsilateral paw after von Frey filament stimulation at 5 mg/kg, ip BID for 11 days from day 13 to day 22. The class given is functional. The settings on record: 264 h, time 11 day.

The target of another data set is hERG (KCNH2) (Homo sapiens, UniProt Q12809). Briefly: Inhibition of human ERG expressed in CHO cells at 10 uM at -80 mV holding potential by whole cell patch clamp assay. The settings on record: CHO cells expressing human ERG. The class given is cell-based.
Sequence of hERG (KCNH2) (Q12809 whole entry): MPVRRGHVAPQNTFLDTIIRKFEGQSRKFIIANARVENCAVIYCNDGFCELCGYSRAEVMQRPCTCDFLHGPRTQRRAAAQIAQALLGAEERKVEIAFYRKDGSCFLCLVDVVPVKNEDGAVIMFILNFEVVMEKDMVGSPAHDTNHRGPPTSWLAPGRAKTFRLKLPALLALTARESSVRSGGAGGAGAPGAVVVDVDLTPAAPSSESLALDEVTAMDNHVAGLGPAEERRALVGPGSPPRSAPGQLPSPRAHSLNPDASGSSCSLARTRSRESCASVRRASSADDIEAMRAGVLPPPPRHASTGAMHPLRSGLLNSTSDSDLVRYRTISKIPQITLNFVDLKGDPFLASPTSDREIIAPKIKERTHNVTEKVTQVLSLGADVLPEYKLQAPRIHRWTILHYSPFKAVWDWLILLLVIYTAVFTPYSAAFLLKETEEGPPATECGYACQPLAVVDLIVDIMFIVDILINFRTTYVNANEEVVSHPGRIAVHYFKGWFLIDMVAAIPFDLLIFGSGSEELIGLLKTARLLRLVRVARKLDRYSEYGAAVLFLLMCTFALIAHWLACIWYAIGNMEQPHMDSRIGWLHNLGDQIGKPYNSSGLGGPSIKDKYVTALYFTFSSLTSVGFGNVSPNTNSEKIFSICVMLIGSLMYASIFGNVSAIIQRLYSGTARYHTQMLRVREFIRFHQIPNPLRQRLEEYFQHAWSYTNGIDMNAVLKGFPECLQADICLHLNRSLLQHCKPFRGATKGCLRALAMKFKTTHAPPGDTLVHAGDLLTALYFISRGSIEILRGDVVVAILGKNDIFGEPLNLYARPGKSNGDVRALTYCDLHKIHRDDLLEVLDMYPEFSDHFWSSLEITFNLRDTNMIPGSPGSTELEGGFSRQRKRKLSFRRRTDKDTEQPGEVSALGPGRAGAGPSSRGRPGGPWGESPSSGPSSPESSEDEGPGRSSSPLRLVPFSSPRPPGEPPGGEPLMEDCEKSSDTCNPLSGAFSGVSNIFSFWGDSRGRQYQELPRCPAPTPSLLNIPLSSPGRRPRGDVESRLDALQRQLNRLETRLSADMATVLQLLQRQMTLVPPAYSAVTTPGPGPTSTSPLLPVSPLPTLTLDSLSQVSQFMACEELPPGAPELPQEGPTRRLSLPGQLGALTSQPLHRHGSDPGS
Data set [14] in a line: Intrinsic clearance in human liver microsomes. The class given is ADME, Microsome. As to conditions: read-out: CLH.
Data set [15] can be described thus: Thermodynamic solubility of compound at pH 7.4. The class given is physicochemical. As to conditions: buffer, read-out: Therm_solubility.
Data set [16] deals with T2, Alpha-1A adrenergic receptor (Homo sapiens) (UniProt P35348).
T2 sequence (whole entry): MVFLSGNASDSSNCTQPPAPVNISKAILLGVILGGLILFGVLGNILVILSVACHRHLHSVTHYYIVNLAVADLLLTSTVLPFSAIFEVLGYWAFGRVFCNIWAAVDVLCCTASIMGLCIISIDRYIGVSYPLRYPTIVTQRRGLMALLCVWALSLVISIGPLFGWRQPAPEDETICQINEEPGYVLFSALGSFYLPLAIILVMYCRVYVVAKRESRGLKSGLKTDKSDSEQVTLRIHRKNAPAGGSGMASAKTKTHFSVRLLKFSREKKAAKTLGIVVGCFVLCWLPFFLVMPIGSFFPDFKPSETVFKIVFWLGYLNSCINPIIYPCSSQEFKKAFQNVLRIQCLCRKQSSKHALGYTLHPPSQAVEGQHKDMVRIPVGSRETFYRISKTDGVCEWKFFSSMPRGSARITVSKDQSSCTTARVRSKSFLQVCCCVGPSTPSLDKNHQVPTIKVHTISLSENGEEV
Briefly: Binding affinity to human alpha1A adrenoreceptor expressed in membranes assessed as inhibition of [3H]-prazosin binding incubated for 90 mins by scintillation counting method. Set-up: concentration or dose not given beside the values. As to conditions: Cell membrane.

Data set [17] relates to Mus musculus. The data set is described as follows: Antinociceptive activity in orally dosed CD1 mouse assessed as by paw pressure test. The class given is functional. The settings on record: CD1, po.

The text below walks through data of ChEMBL document CHEMBL4673253, “Discovery of EST73502, a Dual μ-Opioid Receptor Agonist and σ Receptor Antagonist Clinical Candidate for the Treatment of Pain” (J Med Chem, 2020).

In brackets after ≈: the same amount, converted by molar mass.

Sequence of CYP3A4 (P08684 whole entry): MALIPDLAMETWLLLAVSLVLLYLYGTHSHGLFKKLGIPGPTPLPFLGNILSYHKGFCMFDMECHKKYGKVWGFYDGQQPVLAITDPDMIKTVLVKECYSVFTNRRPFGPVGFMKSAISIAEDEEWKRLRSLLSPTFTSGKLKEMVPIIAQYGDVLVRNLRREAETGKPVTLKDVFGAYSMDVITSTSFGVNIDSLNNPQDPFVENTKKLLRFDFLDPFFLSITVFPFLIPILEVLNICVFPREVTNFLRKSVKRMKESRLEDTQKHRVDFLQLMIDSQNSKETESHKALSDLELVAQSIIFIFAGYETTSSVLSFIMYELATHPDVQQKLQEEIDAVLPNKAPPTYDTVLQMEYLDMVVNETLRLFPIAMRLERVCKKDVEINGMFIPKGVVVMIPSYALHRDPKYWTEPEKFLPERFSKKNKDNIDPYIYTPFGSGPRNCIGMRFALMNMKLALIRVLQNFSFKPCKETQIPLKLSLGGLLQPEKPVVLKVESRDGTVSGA
Sequence of Voltage-gated inwardly rectifying potassium channel KCNH2 (Q12809 whole entry): as the sequence (Q12809 whole entry) above
Sequence of CYP2D6 (P10635 whole entry): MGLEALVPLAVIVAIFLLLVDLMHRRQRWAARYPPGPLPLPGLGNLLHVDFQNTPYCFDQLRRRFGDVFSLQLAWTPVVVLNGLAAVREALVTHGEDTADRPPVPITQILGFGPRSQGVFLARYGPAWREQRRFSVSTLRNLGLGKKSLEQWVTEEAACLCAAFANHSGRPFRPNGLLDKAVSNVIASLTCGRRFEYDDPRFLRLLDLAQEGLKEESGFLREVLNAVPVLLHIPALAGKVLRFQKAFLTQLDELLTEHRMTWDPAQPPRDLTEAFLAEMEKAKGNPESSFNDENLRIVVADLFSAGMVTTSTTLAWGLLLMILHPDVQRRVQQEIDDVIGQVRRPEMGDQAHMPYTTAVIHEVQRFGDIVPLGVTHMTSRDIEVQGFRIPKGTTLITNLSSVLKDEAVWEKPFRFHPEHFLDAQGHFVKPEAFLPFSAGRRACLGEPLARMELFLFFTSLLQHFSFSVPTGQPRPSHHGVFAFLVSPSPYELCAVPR

Turning to `CCN1CC2(CCN(CCc3cc(F)ccc3F)CC2)O[C@H](C)C1=O`, the Activity result (in [1]; in the data set on HepG2 [4]; with HepG2 [6]; in [8]; in data set [9]; in data set [11]) was “Non-Toxic” each time. This compound also returned an IC50 in [2] above 10 µM. For the same compound, the inhibition at 1 µM against CYP3A4, on CYP2C9, against CYP1A2, at CYP2D6 and at CYP2C19 was below 50% throughout. The Papp in [3] was 34.9 ×10⁻⁶ cm/s. In addition, the Emax with Mus musculus [5] turned out to be 40%; in the data set on Mus musculus [17] it was 64%. For the same compound, the logD in data set [7] turned out to be 2.7; in [12] it was 2. In addition, the solubility thermodynamic was found to be 45.1 mg/mL (≈ 128 mM) in data set [10] and 17.7 mg/mL (≈ 50.2 mM) in data set [15]. Besides, the inhibition in vivo at 5 mg/kg with Mus musculus [13] is 56%. Further, at hERG (KCNH2), the inhibition at 10 µM is below 50%. Further, in data set [14], the microsomal CLint is 2.4 µL/min/mg. For the same compound, the inhibition in data set [16] is 21%.
